Test results taken from ChEMBL document CHEMBL1201862, “PubChem BioAssay data set” (2004).
Activity calls are given as the source filed them.

How the values were obtained:
[1] = system: HEK293; test: cells; type: functional, cell-based; conditions: Homo sapiens
[2] = target: T1, Nuclear receptor subfamily 0 group B member 1 (Homo sapiens, UniProt P51843); test: Luminescence-based cell-based high throughput dose response assay for inhibitors of the orphan nuclear receptor subfamily 0, group B, member 1 (DAX1; NR0B1). [Related pubchem assays (depositor defined):AID504766, AID504790]; type: functional
T1 sequence (P51843 whole entry): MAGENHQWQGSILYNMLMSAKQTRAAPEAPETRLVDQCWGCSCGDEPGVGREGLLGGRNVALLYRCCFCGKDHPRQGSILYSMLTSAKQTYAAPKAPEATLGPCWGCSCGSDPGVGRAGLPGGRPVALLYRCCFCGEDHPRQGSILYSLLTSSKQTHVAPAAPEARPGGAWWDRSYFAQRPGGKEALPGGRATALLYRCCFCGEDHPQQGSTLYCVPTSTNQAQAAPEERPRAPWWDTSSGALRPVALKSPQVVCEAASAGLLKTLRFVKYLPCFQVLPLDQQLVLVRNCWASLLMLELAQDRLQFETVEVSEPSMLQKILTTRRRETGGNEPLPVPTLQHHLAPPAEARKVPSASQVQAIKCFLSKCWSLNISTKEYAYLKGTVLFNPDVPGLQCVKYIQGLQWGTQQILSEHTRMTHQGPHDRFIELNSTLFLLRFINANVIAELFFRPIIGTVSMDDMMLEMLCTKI

[3] = target: T2, Cytochrome P450 3A4 (Homo sapiens, UniProt P08684)
[4] = target: T3, Cytochrome P450 1A2 (Homo sapiens, UniProt P05177);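 note: PubChem cytochrome P450 panel assay, CYP1A2 panel member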
T3 sequence (P05177 whole entry): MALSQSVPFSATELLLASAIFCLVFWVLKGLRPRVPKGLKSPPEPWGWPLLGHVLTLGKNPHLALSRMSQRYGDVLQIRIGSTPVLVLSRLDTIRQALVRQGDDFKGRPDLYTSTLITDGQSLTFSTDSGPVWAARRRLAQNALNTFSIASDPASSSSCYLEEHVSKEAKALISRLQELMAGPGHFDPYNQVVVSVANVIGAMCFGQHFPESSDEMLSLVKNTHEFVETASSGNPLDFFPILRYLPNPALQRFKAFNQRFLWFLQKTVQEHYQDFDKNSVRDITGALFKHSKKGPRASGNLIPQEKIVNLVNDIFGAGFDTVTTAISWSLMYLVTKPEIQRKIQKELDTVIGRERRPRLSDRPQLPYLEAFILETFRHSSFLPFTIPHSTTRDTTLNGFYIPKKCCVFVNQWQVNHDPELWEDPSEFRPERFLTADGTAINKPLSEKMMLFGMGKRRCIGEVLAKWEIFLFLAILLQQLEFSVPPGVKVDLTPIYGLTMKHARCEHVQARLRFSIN

[5] = target: Genome polyprotein (dengue virus type 2, UniProt P29990); test: flavivirus cap methylation enzyme inhibition – biochemical, confirmation dose response, primary screen (AID 588689); type: functional
[6] = target: T4, E3 ubiquitin-protein ligase XIAP (Homo sapiens, UniProt P98170); test: Counter Screen using XIAP-Bir3 for Chemical Antagonists of Bir1/2 domains of IAP-family anti-apoptotic proteins. [Related pubchem assays (depositor defined):AID1018, AID1449, AID1514, AID1638, AID1749, AID1750, AID488957, AID488963]
[7] = target: T4, E3 ubiquitin-protein ligase XIAP; test: small molecules displacing peptide from XIAP – biochemical, IAP family, fluorescence polarization (AID 1018); type: functional
[8] = target: Voltage-gated inwardly rectifying potassium channel KCNH2 (Homo sapiens, UniProt Q12809); conditions: Potency;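 note: confirmatory quantitative high-throughput screen measuring inhibition of hERG channel activity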
[9] = target: T2, Cytochrome P450 3A4; conditions: Potency
[10] = target: Cytochrome P450 2C19 (Homo sapiens, UniProt P33261); test: Cytochrome panel assay with activity outcomes. Panel member name: p450-cyp2c19 Compounds with AC50 equal or less than 10 uM are considered active; type: functional; conditions: read-out: AC50
[11] = target: T5, Cytochrome P450 2D6 (Homo sapiens, UniProt P10635);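 note: CYP2D6 member of a cytochrome P450 panel assay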
[12] = system: HEK293; test: cells; conditions: Homo sapiens
[13] = target: Tumor necrosis factor (Homo sapiens, UniProt P01375); test: analog potency on TNFa NF-kB signaling – cell-based, revised, SAR follow-up (AID 2337); type: functional
[14] = target: Nucleotide-binding oligomerization domain-containing protein 1 (Homo sapiens, UniProt Q9Y239); test: blockers of NOD1 pathway activity – revised, SAR follow-up (AID 2333); type: functional
[15] = target: T5, Cytochrome P450 2D6; remark: listed apart in the source

T4 sequence (P98170 whole entry): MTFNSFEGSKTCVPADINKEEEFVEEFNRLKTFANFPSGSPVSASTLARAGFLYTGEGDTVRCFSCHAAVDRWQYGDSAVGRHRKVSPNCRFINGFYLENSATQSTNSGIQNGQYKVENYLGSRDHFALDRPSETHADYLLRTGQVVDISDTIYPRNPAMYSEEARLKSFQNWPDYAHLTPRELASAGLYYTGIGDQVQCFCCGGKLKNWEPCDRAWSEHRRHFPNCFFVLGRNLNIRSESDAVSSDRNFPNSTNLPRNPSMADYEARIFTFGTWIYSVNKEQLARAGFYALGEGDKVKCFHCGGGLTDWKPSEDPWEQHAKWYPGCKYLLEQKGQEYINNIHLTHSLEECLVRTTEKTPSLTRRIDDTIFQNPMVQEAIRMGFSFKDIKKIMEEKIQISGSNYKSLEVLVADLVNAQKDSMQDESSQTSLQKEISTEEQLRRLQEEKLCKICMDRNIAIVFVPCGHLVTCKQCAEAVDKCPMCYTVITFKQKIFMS
T2 sequence (P08684 whole entry): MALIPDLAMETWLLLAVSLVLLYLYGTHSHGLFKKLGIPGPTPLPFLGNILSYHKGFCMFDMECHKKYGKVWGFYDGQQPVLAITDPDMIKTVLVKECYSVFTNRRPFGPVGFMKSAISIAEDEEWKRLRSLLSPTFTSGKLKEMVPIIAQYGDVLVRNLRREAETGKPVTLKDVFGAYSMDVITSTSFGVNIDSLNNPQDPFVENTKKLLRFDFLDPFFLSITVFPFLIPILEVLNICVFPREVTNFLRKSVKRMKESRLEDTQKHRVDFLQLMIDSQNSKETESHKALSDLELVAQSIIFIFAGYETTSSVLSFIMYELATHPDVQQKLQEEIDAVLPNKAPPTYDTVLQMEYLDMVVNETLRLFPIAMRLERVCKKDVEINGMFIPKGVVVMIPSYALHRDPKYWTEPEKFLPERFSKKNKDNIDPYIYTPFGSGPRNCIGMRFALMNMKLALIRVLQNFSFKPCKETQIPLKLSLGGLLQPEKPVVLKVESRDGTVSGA
T5 sequence (P10635 whole entry): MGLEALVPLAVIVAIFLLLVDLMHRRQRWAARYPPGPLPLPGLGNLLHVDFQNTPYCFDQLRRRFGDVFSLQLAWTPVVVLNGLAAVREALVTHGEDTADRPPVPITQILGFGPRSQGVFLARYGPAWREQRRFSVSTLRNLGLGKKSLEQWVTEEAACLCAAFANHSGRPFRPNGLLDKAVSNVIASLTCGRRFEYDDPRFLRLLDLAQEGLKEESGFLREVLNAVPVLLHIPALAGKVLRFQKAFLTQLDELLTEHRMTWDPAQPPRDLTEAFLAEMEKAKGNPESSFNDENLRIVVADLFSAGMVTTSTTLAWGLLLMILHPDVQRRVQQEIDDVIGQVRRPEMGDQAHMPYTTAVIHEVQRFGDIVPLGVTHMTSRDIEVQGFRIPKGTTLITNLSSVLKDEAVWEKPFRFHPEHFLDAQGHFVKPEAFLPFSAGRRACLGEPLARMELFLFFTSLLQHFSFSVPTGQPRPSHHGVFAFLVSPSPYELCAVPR
Voltage-gated inwardly rectifying potassium channel KCNH2, sequence (Q12809 whole entry): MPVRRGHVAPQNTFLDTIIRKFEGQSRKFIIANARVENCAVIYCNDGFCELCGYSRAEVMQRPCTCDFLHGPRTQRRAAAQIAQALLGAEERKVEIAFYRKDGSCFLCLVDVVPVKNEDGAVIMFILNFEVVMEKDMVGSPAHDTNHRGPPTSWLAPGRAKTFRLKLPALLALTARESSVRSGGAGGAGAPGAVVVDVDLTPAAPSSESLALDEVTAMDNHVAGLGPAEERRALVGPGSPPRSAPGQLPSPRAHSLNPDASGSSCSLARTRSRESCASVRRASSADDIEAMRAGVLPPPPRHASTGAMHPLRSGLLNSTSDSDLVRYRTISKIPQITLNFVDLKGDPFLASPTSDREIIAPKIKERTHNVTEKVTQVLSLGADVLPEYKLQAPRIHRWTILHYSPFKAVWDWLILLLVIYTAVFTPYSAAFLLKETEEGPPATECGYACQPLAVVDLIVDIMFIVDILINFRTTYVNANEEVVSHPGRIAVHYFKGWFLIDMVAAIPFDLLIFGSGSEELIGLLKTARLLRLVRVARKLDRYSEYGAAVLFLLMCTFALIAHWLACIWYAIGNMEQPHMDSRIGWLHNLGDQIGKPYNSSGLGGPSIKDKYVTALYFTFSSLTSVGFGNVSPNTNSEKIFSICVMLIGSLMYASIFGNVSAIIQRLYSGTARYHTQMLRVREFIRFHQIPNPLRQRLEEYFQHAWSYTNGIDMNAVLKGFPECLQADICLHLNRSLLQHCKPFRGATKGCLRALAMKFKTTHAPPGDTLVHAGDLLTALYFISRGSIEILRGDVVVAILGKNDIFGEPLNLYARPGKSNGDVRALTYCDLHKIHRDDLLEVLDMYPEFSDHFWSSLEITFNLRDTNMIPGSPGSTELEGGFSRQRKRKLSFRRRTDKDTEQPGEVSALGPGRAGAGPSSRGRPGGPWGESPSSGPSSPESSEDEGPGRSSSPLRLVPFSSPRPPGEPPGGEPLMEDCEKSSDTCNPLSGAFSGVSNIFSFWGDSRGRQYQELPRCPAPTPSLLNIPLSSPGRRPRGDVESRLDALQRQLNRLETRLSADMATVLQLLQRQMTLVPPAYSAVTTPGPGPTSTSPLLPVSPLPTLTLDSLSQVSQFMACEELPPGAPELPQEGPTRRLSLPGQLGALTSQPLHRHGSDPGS
Tumor necrosis factor, sequence (P01375 whole entry, the tested form may be a part): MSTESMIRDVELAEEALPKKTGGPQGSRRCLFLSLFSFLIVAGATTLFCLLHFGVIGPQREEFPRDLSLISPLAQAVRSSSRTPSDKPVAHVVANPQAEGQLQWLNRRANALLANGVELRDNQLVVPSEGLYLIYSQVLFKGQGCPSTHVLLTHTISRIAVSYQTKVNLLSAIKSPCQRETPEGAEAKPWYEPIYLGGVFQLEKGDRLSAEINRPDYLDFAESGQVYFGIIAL
Cytochrome P450 2C19, sequence (P33261 whole entry): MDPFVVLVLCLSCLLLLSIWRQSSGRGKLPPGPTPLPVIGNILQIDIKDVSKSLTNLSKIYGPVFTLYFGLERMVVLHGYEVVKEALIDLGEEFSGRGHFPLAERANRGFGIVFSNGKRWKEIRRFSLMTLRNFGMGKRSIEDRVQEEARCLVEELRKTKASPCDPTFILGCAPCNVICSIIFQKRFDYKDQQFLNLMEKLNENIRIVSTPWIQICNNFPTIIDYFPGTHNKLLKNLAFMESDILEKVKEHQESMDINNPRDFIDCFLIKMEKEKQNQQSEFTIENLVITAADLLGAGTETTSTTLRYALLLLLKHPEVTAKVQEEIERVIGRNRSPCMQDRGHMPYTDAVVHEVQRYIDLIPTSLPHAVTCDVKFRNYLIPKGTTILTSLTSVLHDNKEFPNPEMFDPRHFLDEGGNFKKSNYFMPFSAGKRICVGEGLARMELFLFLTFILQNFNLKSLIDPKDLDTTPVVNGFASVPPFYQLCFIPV
Genome polyprotein, sequence (P29990 2492-3391 limits assumed): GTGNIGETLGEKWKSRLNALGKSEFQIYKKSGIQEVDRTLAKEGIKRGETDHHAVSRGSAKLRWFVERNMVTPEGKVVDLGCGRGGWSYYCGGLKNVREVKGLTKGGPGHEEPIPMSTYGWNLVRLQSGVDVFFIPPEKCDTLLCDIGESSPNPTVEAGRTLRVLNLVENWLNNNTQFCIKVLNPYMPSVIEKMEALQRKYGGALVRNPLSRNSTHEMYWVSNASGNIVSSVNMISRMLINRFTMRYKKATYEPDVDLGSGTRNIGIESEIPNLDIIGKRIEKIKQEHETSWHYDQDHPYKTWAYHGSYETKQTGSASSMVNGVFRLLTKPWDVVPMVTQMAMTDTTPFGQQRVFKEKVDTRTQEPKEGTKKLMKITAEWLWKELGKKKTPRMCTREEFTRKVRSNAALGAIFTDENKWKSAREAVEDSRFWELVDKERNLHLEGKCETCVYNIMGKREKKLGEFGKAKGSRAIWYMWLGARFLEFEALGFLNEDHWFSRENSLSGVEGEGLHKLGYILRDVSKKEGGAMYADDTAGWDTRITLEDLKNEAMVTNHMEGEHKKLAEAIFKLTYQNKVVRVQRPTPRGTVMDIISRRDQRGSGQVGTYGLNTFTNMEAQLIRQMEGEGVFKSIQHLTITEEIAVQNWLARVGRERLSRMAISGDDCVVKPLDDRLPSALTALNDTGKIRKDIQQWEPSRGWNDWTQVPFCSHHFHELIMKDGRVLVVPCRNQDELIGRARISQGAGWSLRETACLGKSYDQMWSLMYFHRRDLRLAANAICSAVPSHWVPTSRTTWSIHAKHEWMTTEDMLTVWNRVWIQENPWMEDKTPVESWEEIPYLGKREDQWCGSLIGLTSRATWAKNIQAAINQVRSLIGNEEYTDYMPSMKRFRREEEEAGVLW

O=C(/C=C/c1ccc2c(c1)OCCO2)c1ccc(O)cc1
IC50 [1]: > 2.5 µM (active) | IC50 [2]: > 67.6 µM (inactive)

O=C(Oc1ccccc1)N1CCC2(CC1)CCN(c1cccc(-c3ccccc3)c1)CC2
AC50 [3]: inconclusive | AC50 [4]: 12.6 µM (inconclusive)

CCc1c(C)sc(NC(=O)OC)c1C(=O)N1CCCCC1
IC50 [5]: > 100 µM (active) | IC50 [6]: 54.6 µM (active) | IC50 [7]: > 25 µM (not active)

Nc1ccccc1C(=O)OCCc1ccccc1
AC50 [8]: 39.8 µM (inconclusive) | AC50 [9]: 12.6 µM (inconclusive)

COc1ccc(-n2nc(C(=O)N3CCN(Cc4ccc5c(c4)OCO5)CC3)c3ccccc3c2=O)cc1
IC50 [6]: > 100 µM (inactive) | IC50 [7]: > 100 µM (not active)

COC(=O)N1CCC2(CC1)CCN(c1ccccn1)CC2
AC50 [10]: 10 µM (inconclusive) | AC50 [3]: inconclusive | AC50 [11]: 10 µM (inconclusive)

O=C(Nc1ccc(S(=O)(=O)O)cc1)c1ccc(CN2CCc3ccccc3C2)cc1
IC50 [12]: > 20 µM (inactive) | IC50 [13]: > 20 µM (inactive) | IC50 [14]: > 20 µM (inactive)

CCc1c(C)[nH]c2c1C(=O)[C@H](CN1CCOCC1)CC2.Cl [MOLINDONE HYDROCHLORIDE]
AC50 [15]: inactive
